Results published in patent publication US20250250308A1, “METHODS AND COMPOSITIONS WITH ANTIFUNGAL ACTIVITY” (priority 2022, published 2025).
Where “and” joins values, the source holds several entries; their conditions need not be identical. Equal entries are not always repeated. Entries after “also recorded” stand apart in the source; their conditions may differ. Square brackets hold non-standard residues; d marks the D form. Peptide text beside a SMILES is read from it.

Assays:
[1] = Peptide serum stability assay; type: in vitro ADME; conditions: 10% human serum, 37° C., HPLC; read-out: Peptide remaining after 24 hours in human serum
Description: Peptide serum stability assay. One mL of RPMI supplemented with 10% (v/v) of human serum (type AB) were aliquoted and temperature-equilibrated at 37° C. for 15 min before adding a concentrated stock peptide solution resulting in a final peptide concentration of 100 μM. For each time point, 100 μL of the reaction solution was removed and added to 200 μL 96% ethanol for precipitation of serum proteins. The sample was cooled (4° C.) for 15 min and then spun at 18,000 g for 2 min to pellet the precipitated serum proteins. The reaction supernatant was analyzed using HPLC with absorbance detected at 280 nm. The peptide peak was detected first without serum treatment to assess the area under the curve for the peptide of interest. At each time point the area under the curve was calculated by HPLC and then divided by the untreated peptide area under the curve to determine the percent remaining.

C. albicans [2] = assay: Killing of C. elegans by C. albicans (survival of infected nematodes); type: in vivo; conditions: for Protection of C. elegans from C. albicans infection (survival): 1 nM peptide; for Median survival: C. albicans infected C. elegans exposed to 1 nM peptide, one value per trial
Description: The α7 helix is sufficient to protect C. elegans and inhibit surface adhesion. Based on this structural characterization, fragments of EntV were examined to identify those structural moieties that retained antifungal activity. Synthetic peptides were generated of each of the four alpha helices (plus two flanking amino acids) from the active C-terminus of EntV—α4, α5, α6 and α7 (FIG. 1A) as well as an α4-α6 construct. The peptides were tested for their ability to protect C. elegans against C. albicans infection as established in previous work (Cruz et al., 2013; Graham et al., 2017).
Killing of C. elegans by C. albicans. The methodology used for the C. elegans infection assays was performed, with a few modifications, as described ((Breger et al., 2007; Cruz et al., 2013; Graham et al., 2017; Peleg et al., 2008)). Briefly, C. elegans glp-4(bn2); sek-1(km-4) (Breger et al., 2007) nematodes were propagated and maintained on E. coli strain OP50(Brenner, 1974) that was seeded onto nematode growth medium (NGM) agar using standard techniques (Hope, 1999). To synchronize the animals, L1 stage worms on non-starved plates were washed off, filtered through a 10 μm filter (pluriSelect, pluriStrainer 10 μm), harvested by centrifugation, transferred to OP50 seeded plates, and grown to the L4 stage. To prepare the infection plates, C. albicans strain […] (Gillum et al., 1984) was grown in YPD broth for 24 h at 37° C. with agitation. 500 μl of the culture was plated onto BHI solid medium containing gentamycin (10 μg/ml) and grown for 24 h at 37° C. The synchronized, L4 C. elegans were washed off the OP50 plates in 2 ml sterile M9 buffer and washed once, centrifuging at 750×g for 30 seconds to collect animals. Animals were infected by placing them on the SC5314 lawn for 4 h at 25° C. Following this exposure, they were washed off the plate and washed four times with 2 ml of sterile M9. The nematodes were then pipetted (˜30 per well with 2 wells per condition for a total of ˜60 worms assayed) into six-well plates with 2 ml of liquid medium (20% BHI broth and 80% M9) containing the indicated concentrations of test compounds. Plates were incubated at 25° C., and worm death was scored daily. Kaplan-Meier survival curves were generated and analyzed as described in the quantification and statistical analysis section.

C. albicans [3] = assay: Mouse OPC (oropharyngeal candidiasis) model; type: in vivo; conditions: 100 nM in drinking water for 5 days following inoculation
Description: Mouse OPC model. The efficacy of EntV fragments were tested in the OPC model as described (Graham et al., 2017; Solis and Filler, 2012). Mice were immunosuppressed by injecting 225 mg/kg cortisone acetate subcutaneously 1 d before inoculation, and subsequently on days 1 and 3 of the infection. Group size was 6-8. To prepare the inoculum, 1 ml of C. albicans (SC5314) overnight culture grown at 30° C. in YPD broth was washed twice in PBS before resuspension in sterile Hanks' balanced salt solution (HBSS) at a concentration of 1×10^6 cells/mL. Calcium alginate swabs were soaked in this inoculum for 5 minutes prior to inoculation. Mice were anesthetized using ketamine and xylazine and placed on pre-warmed isothermal pads and the swabs were placed sublingually for 75 min. Mice were given additional doses of ketamine (50 mg/kg), as necessary. After inoculation, mice were given drinking water with EntV fragments or DMSO (0.01%) in the drinking water ad libitum. Mice were euthanized at 5 d after inoculation, unless noted. The tongues were excised and cut in half laterally for tissue histology and assessment of fungal burden.
For tissue histology the tongue sample was placed in 10% zinc-buffered formalin overnight and stored in 80% ethanol, before embedding in paraffin. For each tongue, 5 μm sections were prepared using a Leica microtome and stained using Periodic Acid-Schiff (PAS) stain. Epithelial invasion was measured from 40× images taken of the entire tissue section of each tongue half with the total area of epithelium and infected epithelium were measured using ImageJ (version 1.6). Measurements were totaled and expressed as a percentage of total infected epithelium relative to the entire epithelial area (Graham et al., 2017; Moyes et al., 2016).
For examination of fungal burden, qPCR was used by amplifying a 269-bp fragment of the internal transcribed spacer 2 (ITS2) between the 5.8S and 28S ribosomal RNA genes of C. albicans (Graham et al., 2017; Khot et al., 2009). DNA was extracted from homogenized tongue tissue using the Yeast DNA Extraction Kit (Thermo Scientific) according to the protocol with minor modifications. The ITS2 fragment was amplified by qPCR was performed with a CFX96 Real-Time System with a C1000 Touch thermal cycler (BioRad). C. albicans gDNA was quantified using FastStart Universal SYBR Green master mix with ROX (Roche). To screen for contamination and background fluorescence during the qPCR amplification, no template controls were used.

Cryptococcus neoformans = assay: High-throughput Sytox Orange C. elegans infection assay, C. neoformans; type: in vivo; conditions: five days of infection; vs. DMSO control
Description: FIGS. 15A-15D: Secondary testing of gain-of-function variants from screen. (FIG. 15A) Survival over time of C. elegans infected with C. albicans and exposed to 1 nM of the indicated peptides. Statistical differences in survival were compared to animals in the exposure condition on the right of the legend (12aa-WT) by Mantel-Cox log rank analysis. An n of 30 animals was used and one representative trial is shown. (FIG. 15B) Percent survival as measured by the high-throughput Sytox Orange assay following five days of infection with C. albicans is shown. Means were calculated with the error bars representing the SEM. Statistical differences in survival were compared to animals in the untreated condition (DMSO) by one-way ANOVA followed by Dunnett's multiple comparison test. An n of 30 animals was used per experimental group. (FIG. 15C) Adhesion of C. albicans to tissue-culture treated plates following incubation with 10 nM of the indicated peptides is shown. […] Means were calculated with the error bars representing the SEM. Statistical significance in comparison to the DMSO control group was determined using one-way ANOVA followed by Tukey's multiple comparison test. […] (FIG. 15D) Percent survival as measured by the high-throughput Sytox Orange assay following five days of infection with C. neoformans is shown. Means were calculated with the error bars representing the SEM. […]

C. albicans [4] = assay: High-throughput Sytox Orange C. elegans infection assay, C. albicans; type: in vivo; conditions: five days of infection; vs. DMSO control
Description: FIGS. 15A-15D: Secondary testing of gain-of-function variants from screen. (FIG. 15A) Survival over time of C. elegans infected with C. albicans and exposed to 1 nM of the indicated peptides. Statistical differences in survival were compared to animals in the exposure condition on the right of the legend (12aa-WT) by Mantel-Cox log rank analysis. An n of 30 animals was used and one representative trial is shown. (FIG. 15B) Percent survival as measured by the high-throughput Sytox Orange assay following five days of infection with C. albicans is shown. Means were calculated with the error bars representing the SEM. Statistical differences in survival were compared to animals in the untreated condition (DMSO) by one-way ANOVA followed by Dunnett's multiple comparison test. An n of 30 animals was used per experimental group. (FIG. 15C) Adhesion of C. albicans to tissue-culture treated plates following incubation with 10 nM of the indicated peptides is shown. A non-adherent strain (Δefg1/Δcph1) was used as a control. Means were calculated with the error bars representing the SEM. Statistical significance in comparison to the DMSO control group was determined using one-way ANOVA followed by Tukey's multiple comparison test. An n of three biological replicates, each with four technical replicates, was used. (FIG. 15D) Percent survival as measured by the high-throughput Sytox Orange assay following five days of infection with C. neoformans is shown. Means were calculated with the error bars representing the SEM. Statistical differences in survival were compared to animals in the untreated condition (DMSO) by one-way ANOVA followed by Dunnett's multiple comparison test. An n of 30 animals was used per experimental group.
High-throughput screening of this library was performed by employing established assays to assess antifungal agent efficacy. […] By using these assays in concert, each individual peptide was assessed using two approaches that probe different aspects of C. albicans virulence.

C. auris = assay: Survival of C. elegans infected with C. auris; type: in vivo; conditions: 1 nM peptide
Description: FIGS. 6A-6D: EntV peptides have activity against many fungal species and strains. Survival over time of C. elegans infected with C. auris, (FIG. 6A), C. neoformans, (FIG. 6B), and C. albicans, (FIG. 6C), paired clinical isolates before (AzS: fluconazole-susceptability) and after gaining fluconazole resistance (AzR), (FIG. 6D). Peptides were added at 1 nM and fluconazole at 4 ug/ml. Statistical differences in survival were compared to animals to the DMSO vehicle control by Mantel-Cox log rank analysis. An n of 60 was used and one representative trial is shown. Exact p values from top to bottom: (FIG. 6A) <0.0001, <0.0001, (FIG. 6B) <0.0001, <0.0001, (FIG. 6C) 0.0013, 0.0004, 0.0035, (FIG. 6D) 0.0050, 0.0040, 0.5539.
EntV peptides have activity against other fungal species and strains. […] Paired clinical isolates of C. albicans, in which fluconazole-resistance had been gained following in-patient evolution were tested and it was determined that animals infected with both the original strain as well as the fluconazole-resistant descendent were protected by EntV ([…]).
Killing of C. elegans by C. albicans. […] Plates were incubated at 25° C., and worm death was scored daily. Kaplan-Meier survival curves were generated and analyzed as described in the quantification and statistical analysis section.

Compound | Protection of C. elegans from C. albicans infection (survival) (C. albicans [2]) | Median survival (C. albicans [2]) | Fungal burden in the tongue (C. albicans DNA by qPCR) (C. albicans [3]) | Hyphal (epithelial) invasion of the tongue (C. albicans [3]) | Survival of C. elegans by Sytox Orange assay, C. albicans (C. albicans [4]) | other results
CC(C)C[C@@H](NC(=O)[C@@H](C)NC(=O)[C@@H](CC(C)C)NC(=O)[C@@H](CCC(N)=O)NC(=O)CNC(=O)[C@@H](C)NC(=O)[C@H](N)C(C)C)C(=O)N[C@H](Cc1c[nH]c2ccccc12)C(=O)N[C@H](C)C(=O)N[C@@H](C(=O)N[C@H](CCC(N)=O)C(=O)N[C@H](CS)C(N)=O)C(C)C [12aa D-form peptide] (H-[dV][dA]G[dQ][dL][dA][dL][dW][dA][dV][dQ][dC]-NH2) | remained as effective as the original in protecting C. elegans against infection with C. albicans |  |  |  |  | remaining at 24 h, 100 μM [1]: ~35%
AGQLALWAVQC [11aa] |  | 9 days and 10 days | reduced fungal burden in the OPC model, but not to the same degree as the 12-mer | some reduction |  | 
GQLALWAVQC [10aa] |  | 8 days and 9 days | reduced fungal burden in the OPC model, but not to the same degree as the 12-mer | some reduction |  | Survival of C. elegans by Sytox Orange assay, C. neoformans (Cryptococcus neoformans): not effective
LVLAFWAVVC [P3] | as effective in protecting the animals as the original 12aa peptide |  |  |  | statistically significant antifungal activity | 
TNAAAAQQGGIICLLVVWLS [α7 - disrupt] |  | 6 days |  |  |  | 
TNAIIVAGQLALWAVQCG [α7] | protected C. elegans from C. albicans infection as well or better than full-length, active EntV^68 | 10.5 days and 12 days and 11 days and 10 days and 13 days and 14 days |  |  |  | Survival of C. elegans infected with C. auris (C. auris): protected animals from death
TNVGALWICGLAVIQAAQLS [α7 - random] |  | 7 days |  |  |  | 
VLLALWALVC [P5] | as effective in protecting the animals as the original 12aa peptide |  |  |  |  | 
VQLALWAVQC [P4] | as effective in protecting the animals as the original 12aa peptide |  | significantly reduced; also recorded: more effective than P1 in reducing fungal burden | significantly reduced | statistically significant antifungal activity | 
VVLALWAVQC [P1] | as effective in protecting the animals as the original 12aa peptide |  | significantly reduced | significantly reduced | statistically significant antifungal activity | 
